Source: US20210324357A1, “DEGRADATION DOMAIN MODIFICATIONS FOR SPATIO-TEMPORAL CONTROL OF RNA-GUIDED NUCLEASES” (THE BRIGHAM AND WOMEN'S HOSPITAL, INC., priority 2018, published 2021)
Entries after “also recorded” stand apart in the source; their conditions may differ.

Key:
[1] = system: FKBP-Cas9 in U2OS.eGFP-PEST cells; assay: Analysis of Cas9 nuclease activity via genomic eGFP-PEST disruption in U2OS cells; type: cell-based, human; conditions: for NtLp 2xFKBP Cas9 activity (% eGFP disruption): increasing amount of degrader 1.4-1000 nM
From the text: In some embodiments, a quantitative human cell-based reporter assay that enables rapid quantitation of targeted nuclease activities is used to characterize off-target cleavage of Cas9-based RNA guided endonucleases. In this assay, the activities of nucleases targeted to a single integrated EGFP reporter gene can be quantified by assessing loss of fluorescence signal in human U2OS.EGFP cells caused by inactivating frameshift insertion/deletion (indel) mutations introduced by error prone non-homologous end-joining (NHEJ) repair of nuclease-induced double-stranded breaks (DSBs).
In one protocol, U2OS.EGFP cells harboring a single integrated copy of an EGFP-PEST fusion gene are cultured (see e.g., Reyon et al., Nat Biotech 30, 460-465 (2012), which is herein incorporated by reference in its entirety). For transfections, 200,000 cells are nucleofected with gRNA expression plasmid and pJDS246 together with 30 ng of a Td-tomato-encoding plasmid using the SE Cell Line 4D-Nucleofector™ X Kit (Lonza) according to the manufacturer's protocol. Cells are analyzed 2 days post-transfection using a BD LSRII flow cytometer. Transfections for optimizing gRNA/Cas9 plasmid concentration are performed in triplicate and all other transfections are performed in duplicate.
In plasmid delivery, approximately 200,000 U20S.eGFP-PEST cells were nucleofected with 300 ng of Cas9 and sgRNA expression plasmids (NtLp 2xFKBP, NtCt 2xFKBP, LpCt 2xFKBP, and 3xFKBP) using the SE Cell Line 4D-Nucleofector X Kit (Lonza) according to the manufacturer's protocol. Approximately 12,000 transfected cells per well were plated in a 96-well plate (Corning 3904) and incubated with dTAG 47 at 1000 nM, 333 nM, 111 nM, 37 nM, 12 nM, 4 nM, 1.4 nM at 37° C. for 48 hrs. In RNP delivery, 15 pmol pre-formed RNP (Cas9 and NtLp 2xFKBP) were nucleofected and followed the protocol described above. Cells were fixed using 4% paraformaldehyde and HCS NuclearMask Blue Stain. The plate was imaged with IXM ImageXpress Automated High Content Microscope at 4× magnification under two excitation channels (blue and green). Images were analyzed in the MetaXpress software.

[2] = system: FKBP-SpCas9 constructs (NtLp 2xFKBP, NtCt 2xFKBP, LpCt 2xFKBP, 3xFKBP) in HEK293FT cells; assay: Western blot analysis of FKBP-SpCas9 degradation; type: cell-based; conditions: increasing amount of dTAG-47 (0.04-3.3 uM), 24h, tubulin loading control
Description: HEK293 or NIH3T3 were transfected with pX330 FKBP-Cas9 plasmid using Lipofectamine 2000 or Lipofectamine 3000 to the manufacturer's protocol accordingly. 24 hours after transfection, cells transiently expressing the different constructs (NtLp 2xFKBP, NtCt 2xFKBP, LpCt 2xFKBP, and 3xFKBP) were incubated in either the absence or the presence of dTAG 47 (3.3 uM, 1.1 uM, 0.37 uM, 0.12 uM, 0.042 uM) for 24h before harvesting. Cells were washed with PBS and proceed to lysis in RIPA buffer. The cell suspensions were centrifuged at 16,000 g for 30 min at 4° C. 20 ug of supernatant were electrophoresed on 4-12% Bis-Tris gel with SDS-Tris running buffer. The protein bands were transferred to nitrocellulose membrane at 100V for 1 h and probed with mouse anti-Cas9 antibody (Abcam) and rabbit anti-tubulin as loading control (Abcam). After blocking and incubation with primary antibodies, membranes were incubated with 680-nm or 800-nm fluorophore labeled secondary antibodies. Protein bands were detected using LI-COR Bioisciences Odyssey Imager and analyzed by Image Studeio Lite (LI-COR Biosciences).

[3] = system: NtLp 2xFKBP Cas9 RNP in S2 cells; assay: Analysis of Cas9 nuclease activity in Drosophila S2 cell via genomic eGFP disruption; type: cell-based; conditions: RNP delivery, dTAG-47 1000 nM, 10 nM, 0 nM, 48 hrs
Description: Approximately 200,000 S2 cells were nucleofected with 15 pmol pre-formed Cas9 RNP (NtLp 2xFKBP) using SE Cell Line 4S-Nucleofector X Kit (Lonza). Approximately 70,000 transfected S2 cells per well were plated in 96-well plate and incubated with 1000 nM and 10 nM dTAG 47. After incubation at room temperature for 48 hrs, cells were stained with HCS Nuclear Mask Blue stain, and imaged with IXM ImageXpress Automated Hifh Content Microscope at 4× magnification under two excitation channels (blue and green).

Compound: CC[C@H](C(=O)N1CCCC[C@H]1C(=O)O[C@H](CCc1ccc(OC)c(OC)c1)c1ccccc1OCC(=O)NCCCCCCOc1cccc2c1C(=O)N(C1CCC(=O)NC1=O)C2=O)c1cc(OC)c(OC)c(OC)c1 (stereo partly shown) [dTAG-13]
- potency in reducing NtLp 2xFKBP Cas9 activity ([1]; U2OS cells, RNP delivery, comparison of FIG. 4A and 4B): less potent than dTAG-47
- NtLp 2xFKBP Cas9 activity (% eGFP disruption) ([1]; U2OS cells, RNP delivery): reduced but not as significant
- potency in inducing degradation (eGFP disruption assay of 4 FKBP-Cas9) ([1]; plasmid delivery, comparison of FIG. 3A and 3B): less potent than dTAG-47

Compound: CC[C@H](C(=O)N1CCCC[C@H]1C(=O)O[C@H](CCc1ccc(OC)c(OC)c1)c1ccccc1OCC(=O)NCCCCCCCCNc1ccc2c(c1)C(=O)N(C1CCC(=O)NC1=O)C2=O)c1cc(OC)c(OC)c(OC)c1 (stereo partly shown) [dTAG-47]
- Cas9 protein detected (degradation of FKBP-SpCas9) [2]: less Cas9 protein was detected; also recorded: less Cas protein was detected
- NtLp 2xFKBP Cas9 activity (% eGFP disruption) ([1]; U2OS cells, RNP delivery): reduced significantly
- potency in reducing Cas9 activity ([1]; plasmid delivery and RNP delivery (FIGS. 3A-3B, 4A-4B)): more potent in reducing Cas9 activity
- eGFP disruption by NtLp 2xFKBP Cas9 RNP [3]: less eGFP disrupted
